Data published in the NIST ThermoML archive (doi:10.1021/je400630f).

Experiment: xn = mol fraction of the nth substance listed
Settings: 100 kPa, Liquid; for viscosity: Capillary tube (Ostwald / Ubbelohde) method

CCCCO [butan-1-ol] + CCO
Settings	mass density, 283.15 K [kg/m3]	mass density, 293.15 K [kg/m3]	mass density, 298.15 K [kg/m3]	mass density, 303.15 K [kg/m3]	mass density, 313.15 K [kg/m3]	viscosity, 283.15 K [mPa·s]	viscosity, 293.15 K [mPa·s]	viscosity, 298.15 K [mPa·s]	viscosity, 303.15 K [mPa·s]	viscosity, 313.15 K [mPa·s]
x2 = 0	817.3	809.6	805.8	802.1	794.3	3.822	2.859	2.558	2.236	1.736
x2 = 0.1002	815.9	808.3	804.5	800.6	792.8	3.528	2.645	2.371	2.091	1.631
x2 = 0.2008	814.5	806.8	803	799.1	791.2	3.198	2.44	2.192	1.938	1.526
x2 = 0.3018	813.3	805.6	801.7	797.8	789.8	2.887	2.235	2.017	1.788	1.42
x2 = 0.4006	811.7	803.8	799.9	795.9	787.9	2.63	2.048	1.853	1.636	1.321
x2 = 0.5002	809.6	801.6	797.7	793.7	785.6	2.404	1.879	1.703	1.506	1.225
x2 = 0.6008	807.7	799.8	795.8	791.8	783.6	2.196	1.715	1.554	1.379	1.135
x2 = 0.7002	805.6	797.5	793.4	789.3	781	1.993	1.567	1.42	1.274	1.058
x2 = 0.7991	803.3	795.1	790.9	786.8	778.3	1.811	1.421	1.299	1.175	0.985
x2 = 0.8997	800.8	792.4	788.2	784.1	776	1.644	1.299	1.188	1.074	0.91

CCCCCCCCCCO [decan-1-ol] + CCO
Settings	mass density, 283.15 K [kg/m3]	mass density, 293.15 K [kg/m3]	mass density, 298.15 K [kg/m3]	mass density, 303.15 K [kg/m3]	mass density, 313.15 K [kg/m3]	viscosity, 283.15 K [mPa·s]	viscosity, 293.15 K [mPa·s]	viscosity, 298.15 K [mPa·s]	viscosity, 303.15 K [mPa·s]	viscosity, 313.15 K [mPa·s]
x2 = 0	836.6	829.9	826.5	823	816.2	22.06	14.5	11.47	9.61	6.9
x2 = 0.09979	835.2	828.4	825	821.5	814.6	18.94	12.7	10.22	8.604	6.221
x2 = 0.2	833.7	826.9	823.5	820	813	16.12	10.94	8.957	7.538	5.513
x2 = 0.3002	831.9	825.1	821.6	818.1	811.1	13.35	9.255	7.687	6.462	4.812
x2 = 0.3999	829.5	822.6	819.1	815.5	808.8	10.96	7.668	6.509	5.468	4.146
x2 = 0.5	827.7	820.6	817	813.5	806.4	8.705	6.278	5.387	4.547	3.51
x2 = 0.6003	824	816.8	813.2	809.5	802.1	6.674	5.013	4.346	3.726	2.92
x2 = 0.6999	820.1	812.8	808.8	805.4	797.9	4.92	3.832	3.374	2.947	2.352
x2 = 0.7997	814.6	807	803.1	799.3	791.5	3.54	2.73	2.459	2.195	1.813
x2 = 0.9	807.9	800	795.9	791.9	783.8	2.319	1.87	1.692	1.534	1.311

CCCCCCCO [heptan-1-ol] + CCO
Settings	mass density, 283.15 K [kg/m3]	mass density, 293.15 K [kg/m3]	mass density, 298.15 K [kg/m3]	mass density, 303.15 K [kg/m3]	mass density, 313.15 K [kg/m3]	viscosity, 283.15 K [mPa·s]	viscosity, 293.15 K [mPa·s]	viscosity, 298.15 K [mPa·s]	viscosity, 303.15 K [mPa·s]	viscosity, 313.15 K [mPa·s]
x2 = 0	829.6	822.6	819.1	815.6	808.4	10.15	7.026	5.947	5.041	3.802
x2 = 0.1001	828.1	821.1	817.6	814	806.8	8.86	6.256	5.311	4.514	3.446
x2 = 0.2008	826.5	819.5	815.9	812.3	805.1	7.718	5.46	4.679	3.999	3.092
x2 = 0.3009	824.8	817.7	814.1	810.4	803.1	6.653	4.681	4.097	3.523	2.751
x2 = 0.4002	822.8	815.5	811.9	808.2	800.8	5.636	4.015	3.565	3.076	2.438
x2 = 0.5001	819.9	812.5	808.8	805.1	797.5	4.683	3.42	3.037	2.653	2.125
x2 = 0.6002	817.6	810.2	806.4	802.6	794.9	3.765	2.869	2.541	2.237	1.818
x2 = 0.6998	813.8	806.2	802.3	798.4	790.6	3.02	2.378	2.09	1.859	1.536
x2 = 0.8	809.9	802.1	798.1	794.1	786.1	2.4	1.943	1.702	1.523	1.28
x2 = 0.8998	804.3	796.2	792.1	788	779.7	1.851	1.535	1.375	1.222	1.04
